Tests used:
[1] = biological target: Kappa-type opioid receptor (Cavia porcellus, UniProt P41144); assay: Binding affinity for k opioid receptor was determined using [3H]U-69593 radioligand in Guinea pig brain membranes; type: cell membranes, Membrane
[2] = biological target: Kappa-type opioid receptor (Cavia porcellus) (UniProt P41144); assay: Ratio of IC50 of ethylketazocine (EK) in the presence (100 nM) to that of ethylketazocine (EK) alone, against kappa opioid receptor in Guinea pig ileum preparation; type: tissue-based
[3] = biological target: Delta-type opioid receptor (Mus musculus) (UniProt P32300); assay: Ratio of IC50 of [D-Ala2,D-Leu5]enkephalin (DADLE) in the presence (100 nM) to that of [(DADLE) alone, against delta opioid receptor in mouse vas deferens preparation
[4] = biological target: Opioid receptors; mu & kappa (Homo sapiens) (UniProt P41145+P35372); assay: Selectivity ratio is IC50 value of kappa-opioid receptor to that of mu-opioid receptor; type: protein assay
[5] = biological target: Mu-type opioid receptor (Cavia porcellus) (UniProt P97266); assay: Ratio of IC50 of morphine (M) in the presence (100 nM) to that of morphine (M) alone, against mu opioid receptor in Guinea pig ileum preparation.; type: tissue-based
[6] = biological target: Opioid receptors; delta & kappa (Homo sapiens) (UniProt P41145+P41143); assay: Selectivity ratio is IC50 value of kappa-opioid receptor to that of delta-opioid receptor; type: protein assay
Mu-type opioid receptor = Mu-type opioid receptor (Cavia porcellus, UniProt P97266); assay: Binding affinity for mu opioid receptor was determined using radioligand [3H][D-Ala2,MePhe4,Gly-ol6]enkephalin (DAMGO) in Guinea pig brain membranes.; type: cell membranes
Mu-type opioid receptor, sequence (P97266 whole entry): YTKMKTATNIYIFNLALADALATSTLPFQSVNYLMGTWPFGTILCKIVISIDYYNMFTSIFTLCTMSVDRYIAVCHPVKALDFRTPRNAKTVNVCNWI

Delta-type opioid receptor (Mus musculus), sequence (P32300 whole entry): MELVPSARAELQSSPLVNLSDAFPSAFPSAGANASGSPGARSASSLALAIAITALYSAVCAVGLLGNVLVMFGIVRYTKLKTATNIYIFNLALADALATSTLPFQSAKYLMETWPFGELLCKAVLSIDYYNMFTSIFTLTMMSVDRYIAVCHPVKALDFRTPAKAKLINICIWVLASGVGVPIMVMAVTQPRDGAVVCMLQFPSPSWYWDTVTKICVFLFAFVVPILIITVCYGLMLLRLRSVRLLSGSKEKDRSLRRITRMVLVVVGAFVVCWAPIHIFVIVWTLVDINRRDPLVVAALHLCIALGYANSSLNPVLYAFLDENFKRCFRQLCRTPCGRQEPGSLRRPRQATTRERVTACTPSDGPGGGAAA
Opioid receptors; mu & kappa (Homo sapiens), sequence (P35372 whole entry, looked up): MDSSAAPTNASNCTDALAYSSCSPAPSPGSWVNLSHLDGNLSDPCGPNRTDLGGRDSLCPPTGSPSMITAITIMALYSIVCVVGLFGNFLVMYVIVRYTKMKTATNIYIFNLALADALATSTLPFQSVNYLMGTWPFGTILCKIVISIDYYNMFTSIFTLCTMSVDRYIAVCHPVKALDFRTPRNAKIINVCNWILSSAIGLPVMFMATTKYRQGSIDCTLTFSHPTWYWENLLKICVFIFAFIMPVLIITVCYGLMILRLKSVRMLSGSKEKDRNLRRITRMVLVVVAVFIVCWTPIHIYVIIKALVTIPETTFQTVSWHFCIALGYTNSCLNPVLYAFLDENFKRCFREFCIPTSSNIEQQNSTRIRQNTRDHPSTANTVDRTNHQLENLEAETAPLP
Opioid receptors; mu & kappa (Homo sapiens), sequence (P41145 whole entry, looked up): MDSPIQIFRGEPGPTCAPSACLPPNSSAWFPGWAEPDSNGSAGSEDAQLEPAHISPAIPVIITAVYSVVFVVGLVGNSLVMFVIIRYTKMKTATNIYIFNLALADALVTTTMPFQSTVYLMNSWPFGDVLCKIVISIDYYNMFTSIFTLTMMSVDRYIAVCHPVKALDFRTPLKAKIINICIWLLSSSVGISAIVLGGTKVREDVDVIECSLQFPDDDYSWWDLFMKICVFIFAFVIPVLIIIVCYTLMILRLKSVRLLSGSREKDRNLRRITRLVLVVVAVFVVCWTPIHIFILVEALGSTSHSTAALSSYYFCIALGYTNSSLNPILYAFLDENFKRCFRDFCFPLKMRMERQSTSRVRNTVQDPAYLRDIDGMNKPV
Mu-type opioid receptor (Cavia porcellus), sequence (P97266 whole entry): as the sequence (P97266 whole entry) above
Opioid receptors; delta & kappa (Homo sapiens), sequence (P41143 whole entry, looked up): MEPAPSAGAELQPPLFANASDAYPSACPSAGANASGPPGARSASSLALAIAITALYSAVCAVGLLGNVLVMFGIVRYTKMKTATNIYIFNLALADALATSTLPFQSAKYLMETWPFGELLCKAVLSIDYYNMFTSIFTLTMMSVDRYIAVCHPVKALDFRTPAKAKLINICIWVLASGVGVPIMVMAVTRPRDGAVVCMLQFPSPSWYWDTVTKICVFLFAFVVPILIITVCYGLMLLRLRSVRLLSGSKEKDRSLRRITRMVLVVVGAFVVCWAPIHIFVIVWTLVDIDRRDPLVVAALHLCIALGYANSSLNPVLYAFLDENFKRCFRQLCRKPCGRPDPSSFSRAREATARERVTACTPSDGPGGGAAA
Opioid receptors; delta & kappa (Homo sapiens), sequence (P41145 whole entry, looked up): as the sequence (P41145 whole entry, looked up) above
Kappa-type opioid receptor (Cavia porcellus), sequence (P41144 whole entry): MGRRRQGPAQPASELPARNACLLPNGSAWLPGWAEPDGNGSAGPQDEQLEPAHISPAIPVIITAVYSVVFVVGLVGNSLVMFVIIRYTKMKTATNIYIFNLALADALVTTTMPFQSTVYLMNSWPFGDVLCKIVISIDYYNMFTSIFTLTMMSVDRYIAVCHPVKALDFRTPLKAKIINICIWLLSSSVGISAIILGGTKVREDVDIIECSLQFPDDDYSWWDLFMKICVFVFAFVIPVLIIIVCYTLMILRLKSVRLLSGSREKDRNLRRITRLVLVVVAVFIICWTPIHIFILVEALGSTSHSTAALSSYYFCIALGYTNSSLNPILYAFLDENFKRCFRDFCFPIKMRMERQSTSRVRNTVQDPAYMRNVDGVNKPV
Kappa-type opioid receptor, sequence (P41144 whole entry): as above

Row | SMILES | Ki [1] | IC50 ratio [2] | IC50 ratio [3] | Selectivity ratio [4] | IC50 ratio [5] | Selectivity ratio [6] | Ki (Mu-type opioid receptor)
1 | Oc1ccc2c3c1O[C@H]1c4[nH]c5c(c4C[C@@]4(O)[C@@H](C2)N(CC2CC2)CC[C@]314)C[C@@]1(O)[C@H]2Cc3ccc(O)c4c3[C@@]1(CCN2CC1CC1)[C@H]5O4 [NORBINALTORPHIMINE] | 0.28 nM |  |  |  |  |  | 
2 | CCC(=N)NCc1ccc2[nH]c3c(c2c1)C[C@@]1(O)[C@H]2Cc4ccc(O)c5c4[C@@]1(CCN2CC1CC1)C3O5 (stereo partly specified) |  | 159 | 2.28 | 14 | 11.3 | 69 | 
3 | CCCCC(=N)NCc1ccc2[nH]c3c(c2c1)C[C@@]1(O)[C@H]2Cc4ccc(O)c5c4[C@@]1(CCN2CC1CC1)C3O5 (stereo partly specified) | 0.061 nM | 439 | 4.71 | 28 | 15.7 | 93 | 3.5 nM
4 | Oc1ccc2c3c1O[C@H]1c4[nH]c5ccccc5c4C[C@@]4(O)[C@@H](C2)N(CC2CC2)CC[C@]314 |  | 1.3 | 459 |  | 11.2 |  | 
5 | CCCC(=N)NCc1ccc2[nH]c3c(c2c1)C[C@@]1(O)[C@H]2Cc4ccc(O)c5c4[C@@]1(CCN2CC1CC1)C3O5 (stereo partly specified) |  | 185 | 3 | 10 | 19.3 | 62 | 

Reference: ChEMBL document CHEMBL1126669, “A remarkable change of opioid receptor selectivity on the attachment of a peptidomimetic kappa address element to the delta antagonist, natrindole: 5'-[N2-alkylamidino)methyl]naltrindole derivatives as a novel class of kappa opioid receptor antagonists” (J Med Chem, 1993)
